Laboratory results published in the NIST ThermoML archive (doi:10.1021/acs.jced.8b00182).

What was measured:
[1] = xn = mol fraction of the nth substance listed; details: 298.15 K, 100 kPa, Liquid, Vibrating tube method
[2] = Liquid; for mass density: 298.15 K, 100 kPa, Vibrating tube method; for vapor or sublimation pressure / Normal boiling temperature: Ebulliometric method (Recirculating still)
[3] = refractive index (Na D-line) (dimensionless); details: 298.15 K; 101.33 kPa; Liquid; Standard Abbe refractometry

CCCCO [butan-1-ol] + CCCCOC(C)=O
Details | mass density [kg/m3]
[1], x2 = 0 | 805.9

CCCCO [butan-1-ol]
Details | mass density [kg/m3] | refractive index
[2] | 805.9 | –
[3] | – | 1.39732

Details | vapor or sublimation pressure [kPa]
[2], 402.59 K | 150

CCO [ethanol]
Details | Normal boiling temperature [°C] | mass density [kg/m3] | refractive index
[2] | 78.30 | 785.2 | –
[3] | – | – | 1.35933

Details | vapor or sublimation pressure [kPa]
[2], 361.98 K | 150

CCCO [propan-1-ol]
Details | Normal boiling temperature [°C] | mass density [kg/m3] | refractive index
[2] | 97.20 | 799.6 | –
[3] | – | – | 1.38315

Details | vapor or sublimation pressure [kPa]
[2], 381.24 K | 150

CCCCOC(C)=O [butyl ethanoate] + CCO
[1]
Details | mass density [kg/m3]
x1 = 0.0443 | 793.7
x1 = 0.1461 | 810.2
x1 = 0.2003 | 817.6
x1 = 0.2554 | 824.3
x1 = 0.2954 | 828.8
x1 = 0.3487 | 834.3
x1 = 0.4451 | 843
x1 = 0.4968 | 847.2
x1 = 0.5987 | 854.6
x1 = 0.6505 | 858
x1 = 0.7492 | 863.9
x1 = 0.8035 | 866.9
x1 = 0.8567 | 869.7
x1 = 0.8978 | 871.7
x1 = 0.9429 | 873.9
x1 = 1 | 876.5

CCCO [propan-1-ol] + CCCCOC(C)=O
Details | mass density [kg/m3]
[1], x2 = 0 | 799.6

CCCCOC(C)=O [butyl ethanoate] + CCCCO
[1]
Details | mass density [kg/m3]
x1 = 0.0758 | 812.9
x1 = 0.1018 | 815.2
x1 = 0.1458 | 819
x1 = 0.2387 | 826.7
x1 = 0.3151 | 832.7
x1 = 0.3468 | 835.1
x1 = 0.3845 | 837.9
x1 = 0.3983 | 838.9
x1 = 0.4316 | 841.3
x1 = 0.5002 | 846.1
x1 = 0.5883 | 852
x1 = 0.6709 | 857.3
x1 = 0.7064 | 859.5
x1 = 0.7919 | 864.7
x1 = 0.8673 | 869.1
x1 = 0.9259 | 872.4
x1 = 0.9503 | 873.8
x1 = 1 | 876.5

CCCCOC(C)=O [butyl ethanoate] + CCCO
[1]
Details | mass density [kg/m3]
x1 = 0.0433 | 805.1
x1 = 0.1028 | 812.1
x1 = 0.2026 | 822.6
x1 = 0.2517 | 827.3
x1 = 0.2927 | 831
x1 = 0.35 | 835.9
x1 = 0.3986 | 839.8
x1 = 0.4482 | 843.6
x1 = 0.554 | 851.1
x1 = 0.5962 | 853.9
x1 = 0.6371 | 856.5
x1 = 0.7071 | 860.8
x1 = 0.7623 | 864
x1 = 0.8001 | 866.1
x1 = 0.8413 | 868.4
x1 = 0.8942 | 871.2
x1 = 0.9401 | 873.5
x1 = 1 | 876.5

CO [methanol]
Details | vapor or sublimation pressure [kPa]
[2], 348.27 K | 150

Details | Normal boiling temperature [°C] | refractive index
[2] | 64.70 | –
[3] | – | 1.32676

CCCCOC(C)=O [butyl ethanoate]
Details | Normal boiling temperature [°C] | mass density [kg/m3] | refractive index
[2] | 125.83 | 876.5 | –
[3] | – | – | 1.39201

Details | vapor or sublimation pressure [kPa]
[2], 413.3 K | 150

CCO [ethanol] + CCCCOC(C)=O
Details | mass density [kg/m3]
[1], x2 = 0 | 785.2
